Reference: patent US4895841A (priority 1987, dated 1990)
Where a name gives a salt, the structure may show the parent alone. Read-outs that look alike come from different tables or passages of the source.

How the values were obtained:
[1] = test system: passive avoidance learning impairment induced by scopolamine; assay: Action on passive avoidance learning impairment induced by scopolamine; format: in vivo, Male Wistar rats; details: scopolamine 0.5 mg/kg i.p.
Experimental: Action on passive avoidance learning impairment induced by scopolamine
See Z. Bokolanecky & Jarvik: Int. J. Neuropharmacol, 6, 217-222(1967).
Male Wistar rats were used as the test animal and a step-through light and dark box was used as an apparatus. A sample to detect was orally administered one hour before the training and the rats were treated with 0.5 mg/kg (i.p.) of scopolamine 30 min. before the training. In a training experiment, the animal was placed into a light room and, just after the animal had entered into a dark room, a guillotine door was closed, followed by delivery of an electric shock from the gid of the floor. After six hours, the animal was again placed into a light room for a retention experiment, and the time taken for the animal to enter the dark room was measured for evaluation of the effect of the sample.
The difference in the response time between the physiological saline administration group and the scopolamine administration group was taken as 100%, and the effect of the sample was expressed in terms of the percentage antagonism by the sample (Reverse %).
The number of animals per dose was 10 to 17.

[2] = biological target: T1, acetylcholinesterase (Mus musculus, UniProt P21836); assay: biochemical; format: biochemical
T1 construct: A mouse brain homogenate was used as an acetylcholinesterase source; from tissue; host or cells: mouse brain homogenate

[3] = Toxicity tests on rats; details: rat, in vivo, no serious toxicity
[4] = test system: acetylcholinesterase; assay: Ex vivo acetylcholinesterase inhibitory action in rat cerebral hemispheres after oral administration; details: 1 h after administration, vs saline control
Description: A sample to detect was orally administered to rats. After one hour of the administration, the cerebral hemispheres were dissected and homogenized, followed by the determination of the acetylcholinesterase activity. The group of rats treated with physiological saline was used as the control. Inhibition of AChE by samples ex vivo was expressed in terms of inhibition percent of the control value.

[5] = 0.25 mg/kg oral 1 h before training
[6] = 0.5 mg/kg oral 1 h before training
[7] = read-out: AChE inhibitory activity IC50
[8] = 1.0 mg/kg oral 1 h before training
[9] = read-out: Inhibitory activity on AChE IC50

T1 sequence (P21836 32-614): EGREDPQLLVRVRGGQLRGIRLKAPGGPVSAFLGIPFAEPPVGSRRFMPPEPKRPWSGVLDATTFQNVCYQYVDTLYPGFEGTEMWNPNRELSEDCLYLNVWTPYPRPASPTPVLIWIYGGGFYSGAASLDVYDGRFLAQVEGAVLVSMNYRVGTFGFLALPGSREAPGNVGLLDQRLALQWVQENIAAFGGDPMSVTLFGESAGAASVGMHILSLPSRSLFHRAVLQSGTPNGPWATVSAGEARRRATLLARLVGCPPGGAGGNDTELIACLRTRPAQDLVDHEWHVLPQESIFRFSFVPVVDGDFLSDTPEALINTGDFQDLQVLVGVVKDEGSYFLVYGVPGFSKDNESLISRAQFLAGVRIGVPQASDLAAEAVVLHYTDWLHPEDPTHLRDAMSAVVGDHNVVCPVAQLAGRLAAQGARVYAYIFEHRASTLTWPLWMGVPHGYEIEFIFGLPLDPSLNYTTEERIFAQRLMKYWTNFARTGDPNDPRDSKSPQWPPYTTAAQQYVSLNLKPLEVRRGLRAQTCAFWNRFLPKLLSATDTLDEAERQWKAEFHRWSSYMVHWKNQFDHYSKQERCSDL

SMILES	IC50 [2] [nM]	further results
COc1cc2c(cc1OC)C(=O)C(CC1CCN(Cc3ccccc3)CC1)C2 (stereo not drawn) [Example 4, 1-Benzyl-4-[(5,6-dimethoxy-1-indanon)-2-yl]-methylpiperidine hydrochloride]	–	Reverse % (percentage antagonism of scopolamine effect) ([1]; 0.125 mg/kg oral 1 h before training): 55%; Reverse % (percentage antagonism of scopolamine effect) [1, 5]: 36%
CC(C)OC(=O)c1nccnc1C(=O)NCCC1CCN(Cc2ccccc2)CC1 [Example 13]	26	Reverse % (percentage antagonism of scopolamine effect) [1, 5]: 39%; Reverse % (percentage antagonism of scopolamine effect) [1, 6]: 27%; LD50 [3]: ≥ 100 mg/kg
O=C(NCCC1CCN(Cc2ccccc2)CC1)c1cnc2ccccc2n1 [Example 15, N-[4'-(1'-Benzylpiperidyl)ethyl]-2-quinoxalinecarboxylic amide]	–	IC50 [2, 7]: 94 nM; AChE inhibitory action (%) ([4]; 10 mg/kg oral): 5%; AChE inhibitory action (%) ([4]; 30 mg/kg oral): 14%; AChE inhibitory action (%) ([4]; 100 mg/kg oral): 18%; Reverse % (percentage antagonism of scopolamine effect) [1, 8]: 51%; Reverse % (percentage antagonism of scopolamine effect) ([1]; 2.0 mg/kg oral 1 h before training): 30%; LD50 [3]: ≥ 100 mg/kg
O=C(c1ccncc1)N(CCC1CCN(Cc2ccccc2)CC1)c1ccccc1 [Example 19, dihydrochloride]	–	IC50 [2, 7]: 64 nM; Reverse % (percentage antagonism of scopolamine effect) [1, 6]: 37%; Reverse % (percentage antagonism of scopolamine effect) [1, 8]: 39%; LD50 [3]: ≥ 100 mg/kg
CCN1CC(=O)N(CCC2CCN(Cc3ccccc3)CC2)c2ccccc2C1 [Example 69]	–	Reverse % (percentage antagonism of scopolamine effect) [1, 6]: 22%; Reverse % (percentage antagonism of scopolamine effect) [1, 8]: 38%; LD50 [3]: ≥ 100 mg/kg
Cc1cccc2c1CC(CC1CCN(Cc3ccccc3)CC1)C2=O (stereo not drawn) [Example 195]	7.1	–
COc1cc2c(cc1O)C(=O)C(CC1CCN(Cc3ccccc3)CC1)C2 (stereo not drawn) [Example 196]	1.3	–
COc1cc2c(cc1O)CC(CC1CCN(Cc3ccccc3)CC1)C2=O (stereo not drawn) [Example 197]	380	–
CCOc1cc2c(cc1OCC)C(=O)C(CC1CCN(Cc3ccccc3)CC1)C2 (stereo not drawn) [Example 198]	5.4	–
O=C1c2cc3c(cc2CC1CC1CCN(Cc2ccccc2)CC1)OCO3 (stereo not drawn) [Example 199]	23	–
CC(CC1CCN(Cc2ccccc2)CC1)C(=O)c1ccccc1 (stereo not drawn) [Example 202]	1200	–
COc1cc2c(cc1OC(C)C)CC(CC1CCN(Cc3ccccc3)CC1)C2=O (stereo not drawn) [Example 203]	9	–
COc1cc2c(cc1OC)C(=O)C(CCCCC1CCN(Cc3ccccc3)CC1)C2 (stereo not drawn) [Example 204]	–	IC50 [2, 9]: 35 nM
COc1cc2c(cc1OC)C(=O)C(CCCCCC1CCN(Cc3ccccc3)CC1)C2 (stereo not drawn) [Example 205]	–	IC50 [2, 9]: 14 nM
COc1ccc2c(c1)C(=O)C(=CC1CCN(Cc3ccccc3)CC1)C2 [Example 206]	–	IC50 [2, 9]: 410 nM
COc1cccc2c1CC(=CC1CCN(Cc3ccccc3)CC1)C2=O [Example 207]	49	–
COc1ccc2c(c1OC)CC(=CC1CCN(Cc3ccccc3)CC1)C2=O [Example 208]	62	–
COc1ccc2c(c1OC)C(=O)C(=CC1CCN(Cc3ccccc3)CC1)C2 [Example 209]	430	–
COc1cc2c(c(OC)c1OC)C(=O)C(=CC1CCN(Cc3ccccc3)CC1)C2 [Example 210]	60	–
O=C1C(=CC2CCN(Cc3ccccc3)CC2)Cc2ccc(F)cc21 [Example 211]	2000	–
Cc1ccc2c(c1)C(=O)C(=CC1CCN(Cc3ccccc3)CC1)C2 [Example 212]	500	–
Cc1cccc2c1CC(=CC1CCN(Cc3ccccc3)CC1)C2=O [Example 213]	50	–
COc1cc2c(cc1O)C(=O)C(=CC1CCN(Cc3ccccc3)CC1)C2 [Example 214]	8.4	–
COc1cc2c(cc1OCc1ccccc1)CC(=CC1CCN(Cc3ccccc3)CC1)C2=O [Example 215]	4.2	–
CCOc1cc2c(cc1OCC)C(=O)C(=CC1CCN(Cc3ccccc3)CC1)C2 [Example 216]	17	–
O=C1C(=CC2CCN(Cc3ccccc3)CC2)Cc2cc3c(cc21)OCO3 [Example 217]	140	–

SMILES	IC50 [2] [nM]	further results
O=C1C(=CC2CCN(Cc3ccccc3)CC2)CCc2ccccc21 [Example 218]	20000	–
O=C1C(=CC2CCN(Cc3ccccc3)CC2)CCCc2ccccc21 [Example 219]	19000	–
CC(=CC1CCN(Cc2ccccc2)CC1)C(=O)c1ccccc1 [Example 220]	11000	–
COc1cc2c(cc1OC(C)C)CC(=CC1CCN(Cc3ccccc3)CC1)C2=O [Example 221]	33	–
COc1cc2c(cc1OC)C(=O)C(=CCCCC1CCN(Cc3ccccc3)CC1)C2 [Example 222]	11	–
COc1cc2c(cc1OC)C(=O)C(=CCCCCC1CCN(Cc3ccccc3)CC1)C2 [Example 223]	5.4	–
COc1cc2c(cc1OC)C(=O)C(=CC=CC1CCN(Cc3ccccc3)CC1)C2 [Example 224, 1-benzyl-4-((5,6-dimethoxy-1-oxoindanon)-2-yl)propenylpiperidine]	3	–
COc1cc2c(cc1OC)C(=O)C(CN1CCC(Cc3ccccc3)CC1)C2 (stereo not drawn) [Example 225]	–	IC50 [2, 9]: 480 nM
COc1cc2c(cc1OC)C(=O)C(CC1CC[N+]([O-])(Cc3ccccc3)CC1)C2 (stereo not drawn) [Example 226]	4.9	–
COc1cc2c(cc1OC)C(=O)C(CC1CCN(Cc3ccc(C)cc3)CC1)C2 (stereo not drawn) [Example 229]	–	IC50 ([2]; in vitro, mouse brain homogenate, Table 10, read-out: Inhibitory activity on AChE IC50): 40 nM
COc1cc2c(cc1OC)C(=O)C(CC1CCN(Cc3ccccc3[N+](=O)[O-])CC1)C2 (stereo not drawn) [Example 230]	–	IC50 [2, 9]: 160 nM
COc1cc2c(cc1OC)C(=O)C(CC1CCN(Cc3cccc(O)c3)CC1)C2 (stereo not drawn) [Example 233]	46	–
COc1cc2c(cc1OC)C(=O)C(CC1CCN(Cc3ccc(O)cc3)CC1)C2 (stereo not drawn) [Example 234]	1.8	–
COc1cccc(CN2CCC(CC3Cc4cc(OC)c(OC)cc4C3=O)CC2)c1 (stereo not drawn) [Example 235]	220	–
COc1ccc(CN2CCC(CC3Cc4cc(OC)c(OC)cc4C3=O)CC2)cc1 (stereo not drawn) [Example 236]	3600	–
COc1cc2c(cc1OC)C(=O)C(CC1CCN(Cc3cccc(OCc4ccccc4)c3)CC1)C2 (stereo not drawn) [Example 237]	2600	–
COc1cc2c(cc1OC)C(=O)C(CC1CCN(Cc3cccnc3)CC1)C2 (stereo not drawn) [Example 238]	72	–
COc1cc2c(cc1OC)C(=O)C(CC1CCN(Cc3cccc4ccccc34)CC1)C2 (stereo not drawn) [Example 241]	220	–
COc1cc2c(cc1OC)C(=O)C(CC1CCN(Cc3ccc4ccccc4c3)CC1)C2 (stereo not drawn) [Example 242]	2900	–
COc1ccc(CN2CCC(CC3Cc4cc(OC)c(OC)cc4C3=O)CC2)cc1OC (stereo not drawn) [Example 243]	4000	–
COc1cc2c(cc1OC)C(=O)C(CC1CCN(Cc3cc(OC)c(OC)c(OC)c3)CC1)C2 (stereo not drawn) [Example 244]	4900	–
COc1cc2c(cc1O)C(=O)C(CC1CCNCC1)C2 (stereo not drawn) [Example 245]	5000	–
COc1cc2c(cc1OC)C(=NNc1ccc([N+](=O)[O-])cc1[N+](=O)[O-])C(CC1CCN(Cc3ccccc3)CC1)C2 (stereo not drawn) [Example 246]	4400	–
COc1cc2c(cc1OC)C(=O)C(NC1CCN(Cc3ccccc3)CC1)C2 (stereo not drawn) [Example 248]	1400	–
COc1cc2c(cc1OC)C(=O)C(C(C1CCN(Cc3ccccc3)CC1)C1Cc3cc(OC)c(OC)cc3C1=O)C2 (stereo not drawn) [Example 249]	620	–
